This is an account of results in US7297704B2, “Cycloalkyfused indole, benzothiophene, benzofuran and idene derivatives” (Wyeth, priority 2005, dated 2007).

Counter-ions that a name gives are not always drawn. Like-named read-outs stand apart in the source and are kept apart here.

One data set has as its target h-5-HT-T (Homo sapiens, UniProt P31645). Description: h-5-HT-T IC50 (Table 1, no method described).
The target of another data set is T1, serotonin transporter (Rattus norvegicus, UniProt P31652).
T1 construct: frontal cortical membranes prepared from male S.D. rats; from tissue; host or cells: rat frontal cortex membranes (male Sprague-Dawley)
T1 sequence (P31652 whole entry): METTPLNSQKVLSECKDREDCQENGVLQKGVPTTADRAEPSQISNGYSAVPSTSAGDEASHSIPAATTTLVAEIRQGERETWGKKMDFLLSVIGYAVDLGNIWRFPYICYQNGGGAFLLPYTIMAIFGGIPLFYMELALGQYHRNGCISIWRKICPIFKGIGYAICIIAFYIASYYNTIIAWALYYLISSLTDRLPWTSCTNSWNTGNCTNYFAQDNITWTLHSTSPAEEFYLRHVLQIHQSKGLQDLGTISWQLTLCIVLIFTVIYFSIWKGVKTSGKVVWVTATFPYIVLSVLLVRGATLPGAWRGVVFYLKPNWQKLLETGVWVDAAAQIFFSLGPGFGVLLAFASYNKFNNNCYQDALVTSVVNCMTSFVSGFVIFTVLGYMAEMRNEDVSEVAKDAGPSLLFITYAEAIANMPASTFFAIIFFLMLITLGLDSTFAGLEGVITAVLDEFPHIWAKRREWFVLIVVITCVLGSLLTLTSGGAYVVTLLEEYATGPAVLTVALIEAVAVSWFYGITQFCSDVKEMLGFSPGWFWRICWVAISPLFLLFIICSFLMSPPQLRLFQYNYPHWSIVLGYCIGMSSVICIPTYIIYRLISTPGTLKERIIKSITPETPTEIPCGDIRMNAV
Description: 3H-paroxetine binding to the serotonin transporter, rat frontal cortical membranes. The note with it: 3H-paroxetine 0.1 nM; for Ki: values printed without parentheses, read-out: rb-5-HH-T, Ki; for IC50: values printed in parentheses, read-out: rb-5-HH-T, (IC50). As to the method: A protocol similar to that used by Cheetham et al. (Neuropharmacol. 32:737, 1993) was used to determine the affinity of compounds for the serotonin transporter. Briefly, frontal cortical membranes prepared from male S.D. rats were incubated with ^3H-paroxetine (0.1 nM) for 60 min at 25° C. All tubes also contained either vehicle, test compound (one to eight concentrations), or a saturating concentration of fluoxetine (10 μM) to define […]. All reactions are terminated by the addition of ice cold Tris buffer followed by rapid filtration using a Tom Tech filtration device to separate bound from free ^3H-paroxetine. Bound radioactivity was quantitated using a Wallac 1205 Beta Plate® counter. Nonlinear regression analysis was used to determine IC50 values which were converted to Ki values using the method of Cheng and Prusoff (Biochem. Pharmacol. 22: 3099, 1973); […].

The target of data set [1] is T2, Human 5-HT1A Receptor (Homo sapiens, UniProt P08908).
T2 construct: expressed in transfected cells; host or cells: CHO cells
T2 sequence (P08908 1-422): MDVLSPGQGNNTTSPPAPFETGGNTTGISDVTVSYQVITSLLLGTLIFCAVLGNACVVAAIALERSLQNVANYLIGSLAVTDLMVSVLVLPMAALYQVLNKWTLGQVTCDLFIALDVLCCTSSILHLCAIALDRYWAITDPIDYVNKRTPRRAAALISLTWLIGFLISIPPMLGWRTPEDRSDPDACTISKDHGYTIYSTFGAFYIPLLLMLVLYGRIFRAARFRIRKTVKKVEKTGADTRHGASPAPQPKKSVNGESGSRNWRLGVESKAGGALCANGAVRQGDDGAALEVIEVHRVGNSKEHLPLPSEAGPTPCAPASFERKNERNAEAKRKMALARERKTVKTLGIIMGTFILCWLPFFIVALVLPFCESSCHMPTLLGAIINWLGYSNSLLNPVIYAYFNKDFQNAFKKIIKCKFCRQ
Kind of data set: cAMP RIA in human 5-HT1A receptor cell line. The data set is classed as cell-based. The note with it: CHO cells; for Emax: superscript c, read-out: c-AMP, (Emax)^c; for Emax / EC50: forskolin stimulated cAMP; for EC50: superscript a, read-out: c-AMP, (EC50)^a; for IC50: superscript b, reversal of agonist activity, read-out: c-AMP, (IC50)^b. As to the method:
Stably transfected CHO cells were grown in DMEM containing 10% heat inactivated FBS and non-essential amino acids. The cells were plated at a density of 10^6 cells per well in a 96 well plate and incubated for 2 days in a CO2 incubator. On the second day, the media was replaced with 0.1 ml Krebs and incubated 15 minutes at 37° C. The media was then replaced with Krebs buffer containing 500 uM IBMX and incubated 5 minutes at 37° C. Wells were treated with forskolin (1 uM final conc) followed immediately by test compound (0.1 and 1 uM for initial screen) and incubated for an additional 10 min at 37° C. Reaction was terminated by removal of the media and addition of 0.5 ml ice cold assay buffer (supplied in RIA kit). Plates are stored at −20° C. prior to assessment of cAMP formation by RIA. Compounds shown to have no agonist activities were further analyzed for ability to reverse agonist activity. In separate experiments, 6 concentrations of antagonist were preincubated for 20 min prior to the addition of agonist and forskolin. Cells were harvested as described. The cAMP kit is supplied by Amersham and the RIA is performed as per kit instructions. In the initial screen, percent inhibition of forskolin stimulated cAMP was measured. In the secondary screen, IC50 of reversal of agonist activity was measured. Calculations of IC50 were performed by GraphPad Prism. Serotonin, BMY 7378, Buspirone, and 8-OH-DPAT were used as reference compounds.

The target in data set [2] is T2, Human 5-HT1A Receptor. Kind of data set: 8-OH-DPAT binding, human 5-HT1A receptor cell line. The following applies: stably transfected CHO cells, 8-OH-DPAT ligand 1.5 nM; read-out: h5-HT1A Affinity, Ki. The procedure:
Stably transfected CHO cells were grown in DMEM containing 10% heat inactivated FBS and non-essential amino acids. Cells were scraped off the plate, transferred to centrifuge tubes, and washed twice by centrifugation (2000 rpm for 10 min., 4° C.) in buffer (50 mM Tris, pH 7.5). The resulting pellets were aliquoted and placed at −80° C. On day of assay, the cells were thawed on ice, and resuspended in buffer. The binding assay was performed in a 96 well microtiter plate in a total volume of […]. Non-specific binding was determined in the presence of […] 5HT; final ligand concentration was 1.5 nM. Following a 30 min. incubation at room temperature, the reaction was terminated by the addition of ice cold buffer and rapid filtration through a GF/B filter presoaked for 30 min. in 0.5% PEI. Compounds were initially tested in a single point assay to determine percent inhibition at […]. Subsequently, Ki values were determined for compounds defined to be active. Percent inhibition Ki was determined by RFComp (Lundon Software), with Serotonin 8-OH-DPAT as the reference compounds.

Chain of h-5-HT-T (P31645 whole entry): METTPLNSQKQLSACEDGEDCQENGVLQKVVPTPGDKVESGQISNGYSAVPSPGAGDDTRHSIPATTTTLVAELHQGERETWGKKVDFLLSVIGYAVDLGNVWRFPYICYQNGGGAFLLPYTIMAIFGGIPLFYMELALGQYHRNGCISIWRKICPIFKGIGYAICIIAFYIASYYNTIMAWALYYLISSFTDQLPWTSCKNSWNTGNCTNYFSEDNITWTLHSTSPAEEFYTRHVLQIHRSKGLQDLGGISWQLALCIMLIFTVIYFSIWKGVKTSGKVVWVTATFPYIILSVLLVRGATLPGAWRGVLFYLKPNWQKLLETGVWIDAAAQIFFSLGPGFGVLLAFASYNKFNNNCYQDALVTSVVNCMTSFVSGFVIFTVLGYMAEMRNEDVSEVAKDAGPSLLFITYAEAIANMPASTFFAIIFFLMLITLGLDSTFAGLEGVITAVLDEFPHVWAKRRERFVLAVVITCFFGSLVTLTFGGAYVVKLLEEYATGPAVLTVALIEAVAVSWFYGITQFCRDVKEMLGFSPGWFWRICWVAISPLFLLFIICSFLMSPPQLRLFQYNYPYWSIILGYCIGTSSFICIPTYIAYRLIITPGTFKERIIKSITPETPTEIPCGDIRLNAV

Regarding `Cc1ccc2c3c(ccc2n1)OC[C@H](CNC1CCc2c([nH]c4ccc(F)cc24)C1)O3` (mixture of isomers) [Example 46, 6-Fluoro-N-{[(2S)-8-methyl-2,3-dihydro[1,4]dioxino[2,3-f]quinolin-2-yl]methyl}-2,3,4,9-tetrahydro-1H-carbazol-2-amine], the IC50 against h-5-HT-T worked out at 52.5 ± 1.73 nM. For the same molecule, the Ki at serotonin transporter came out at 8.55 nM; on Human 5-HT1A Receptor [2], 231 nM. On Human 5-HT1A Receptor [1] (CHO), the Emax was 70%. In addition, at Human 5-HT1A Receptor [1], the EC50 came out at 155 nM.
On to `Cc1ccc2c3c(ccc2n1)OC[C@H](CNCC1CCc2sc4ccccc4c2C1)O3` (single isomer, unassigned) [32 diastereomer 2], for which the IC50 on h-5-HT-T turned out to be 885 nM; at Human 5-HT1A Receptor [1], 17.7 nM. Further, the Ki on serotonin transporter is 47.6 nM; on Human 5-HT1A Receptor [2], 6.49 nM.
`Cc1ccc2c3c(ccc2n1)OC[C@H](CN[C@@H]1CCc2c([nH]c4ccccc24)C1)O3` (single isomer, unassigned) [Example 44, dihydrochloride]: the IC50 on h-5-HT-T came out at 22.1 ± 2.51 nM. Besides, on Human 5-HT1A Receptor [1], the EC50 is 225 nM and the Emax amounted to 74%. The Ki at Human 5-HT1A Receptor [2] was determined as 620 nM.
On to `Cc1ccc2c3c(ccc2n1)OC[C@H](CNC[C@H]1CCc2[nH]c4ccc(C#N)cc4c2C1)O3.Cl.Cl` [Example 14, (3S)-3-[({[(2S)-8-methyl-2,3-dihydro[1,4]dioxino[2,3-f]quinolin-2-yl]methyl}amino)methyl]-2,3,4,9-tetrahydro-1H-carbazole-6-carbonitrile dihydrochloride], for which the melting point was in the range of 236 to 241 °C. Further, at serotonin transporter, the IC50 stood at 3.61 nM. For the same molecule, on Human 5-HT1A Receptor [1], the IC50 amounted to 79.5 nM. In addition, on Human 5-HT1A Receptor [2], the Ki came to 13.6 nM.
`Cc1ccc2c3c(ccc2n1)OC[C@H](CNC[C@@H]1CCc2[nH]c4ccc(C#N)cc4c2C1)O3.Cl.Cl` [Example 15, (3R)-3-[({[(2S)-8-methyl-2,3-dihydro[1,4]dioxino[2,3-f]quinolin-2-yl]methyl}amino)methyl]-2,3,4,9-tetrahydro-1H-carbazole-6-carbonitrile dihydrochloride] had a melting point of 254 to 258 °C. The IC50 on serotonin transporter was found to be 2.25 nM. Moreover, the concentration for half-maximal inhibition (IC50) at Human 5-HT1A Receptor [1] came to 888 nM. Moreover, the Ki at Human 5-HT1A Receptor [2] was found to be 15 nM.
At h-5-HT-T, `Cc1ccc2c3c(ccc2n1)OC[C@H](CN(C[C@@H]1CCc2[nH]c4ccc(F)cc4c2C1)C(C)C)O3` [Example 57, N-{[(3R)-6-Fluoro-2,3,4,9-tetrahydro-1H-carbazol-3-yl]methyl}-N-{[(2S)-8-methyl-2,3-dihydro[1,4]dioxino[2,3-f]quinolin-2-yl]methyl}propan-2-amine monohydrochloride monohydrate] showed an IC50 of 1130 ± 109 nM. Moreover, the inhibitory constant (Ki) on serotonin transporter was determined as 1570 nM; at Human 5-HT1A Receptor [2], 6140 nM.
With `Cc1ccc2c3c(ccc2n1)OC[C@H](CN(C[C@@H]1CCc2[nH]c4ccc(F)cc4c2C1)C1CCCCC1)O3` [Example 60, N-{[(3R)-6-fluoro-2,3,4,9-tetrahydro-1H-carbazol-3-yl]methyl}-N-{[(2S)-8-methyl-2,3-dihydro[1,4]dioxino[2,3-f]quinolin-2-yl]methyl}cyclohexanamine monohydrochloride monohydrate], at h-5-HT-T, the midpoint of inhibition, the IC50, lay at 995 ± 24.4 nM. Further, at serotonin transporter, the Ki stood at 394 nM.
In the case of `Cc1ccc2c3c(ccc2n1)OC[C@H](CN(C[C@H]1CCc2[nH]c4ccc(F)cc4c2C1)C(C)C)O3` [Example 61, N-{[(3S)-6-Fluoro-2,3,4,9-tetrahydro-1H-carbazol-3-yl]methyl}-N-{[(2S)-8-methyl-2,3-dihydro[1,4]dioxino[2,3-f]quinolin-2-yl]methyl}propan-2-amine monohydrochloride monohydrate], at h-5-HT-T, the IC50 was 1700 ± 46 nM.
With `CCC(C)N(C[C@H]1CCc2[nH]c3ccc(F)cc3c2C1)C[C@H]1COc2ccc3nc(C)ccc3c2O1` (stereo partly drawn) [Example 62, N-{[(3S)-6-Fluoro-2,3,4,9-tetrahydro-1H-carbazol-3-yl]methyl}-N-{[(2S)-8-methyl-2,3-dihydro[1,4]dioxino[2,3-f]quinolin-2-yl]methyl}butan-2-amine monohydrochloride monohydrate], at h-5-HT-T, the IC50 is 730 ± 9.19 nM. Also, the Ki on Human 5-HT1A Receptor [2] came to 1960 nM.
On to `Cc1ccc2c3c(ccc2n1)OC[C@H](CN(C[C@H]1CCc2[nH]c4ccc(F)cc4c2C1)C1CCCC1)O3` [Example 63, N-{[(3S)-6-Fluoro-2,3,4,9-tetrahydro-1H-carbazol-3-yl]methyl}-N-{[(2S)-8-methyl-2,3-dihydro[1,4]dioxino[2,3-f]quinolin-2-yl]methyl}cyclopentanamine monohydrochloride monohydrate], for which the half-inhibitory concentration (IC50) against h-5-HT-T is 389 ± 38.2 nM. Moreover, on serotonin transporter, the Ki was determined as 113 nM. Also, on Human 5-HT1A Receptor [1], the EC50 worked out at 1350 nM and the maximum response (Emax) turned out to be 73%.
Molecule `Cc1ccc2c3c(ccc2n1)OC[C@H](CN(C[C@H]1CCc2[nH]c4ccc(F)cc4c2C1)C1CCCCC1)O3` [Example 64, N-{[(3S)-6-Fluoro-2,3,4,9-tetrahydro-1H-carbazol-3-yl]methyl}-N-{[(2S)-8-methyl-2,3-dihydro[1,4]dioxino[2,3-f]quinolin-2-yl]methyl}cyclohexanamine monohydrochloride monohydrate] returned an IC50 against h-5-HT-T of 2490 ± 269 nM. The Ki on serotonin transporter is 455 nM.
As for `Cc1ccc2c3c(ccc2n1)OCC(CN(CC1CCc2c(c4cc(F)ccc4n2C)C1)C(C)C)O3` [Example 65, N-[(6-Fluoro-9-methyl-2,3,4,9-tetrahydro-1H-carbazol-3-yl)methyl]-N-([(2S)-8-methyl-2,3-dihydro[1,4]dioxino[2,3-f]quinolin-2-yl]methylpropan-2-aminemonohydrochloride monohydrate], the IC50 on h-5-HT-T was 403 ± 29 nM.
Turning to `Cc1ccc2c3c(ccc2n1)OC[C@H](CN(CC1CCc2c(c4cc(F)ccc4n2C)C1)C1CCCC1)O3` (stereo partly drawn) [Example 66, N-[(6-Fluoro-9-methyl-2,3,4,9-tetrahydro-1H-carbazol-3-yl)methyl]-N-{[(2S)-8-methyl-2,3-dihydro[1,4]dioxino[2,3-f]quinolin-2-yl]methyl}cyclopentanamine monohydrochloride monohydrate], half-maximal inhibition on h-5-HT-T (IC50) was put at 62.3 ± 9.19 nM. At Human 5-HT1A Receptor [1], the concentration for a half-maximal effect (EC50) worked out at 163 nM and the Emax was 67.5%.
With `Cc1ccc2c3c(ccc2n1)OC[C@H](CN(CC1CCc2c(c4cc(F)ccc4n2C)C1)C1CCCCC1)O3` (stereo partly drawn) [Example 67, N-[(6-Fluoro-9-methyl-2,3,4,9-tetrahydro-1H-carbazol-3-yl)methyl]-N-{[(2S)-8-methyl-2,3-dihydro[1,4]dioxino[2,3-f]quinolin-2-yl]methyl}cyclohexanamine monohydrochloride monohydrate], the IC50 against h-5-HT-T was 505 ± 9.55 nM.

One may read the IC50 as the concentration that gives 50% inhibition. What is called Ki is a dissociation constant, usually derived from enzyme kinetics or from competition with a known ligand. The Emax is the greatest response seen or fitted, relative to the assay's reference. In general, EC50 refers to the midpoint of the concentration-response curve. Broadly, the melting point is the temperature of the solid-liquid transition.
